Measurements from US20220401951A1, “RAPID CELL CULTURE TEST DEVICE INCLUDING ISLAND STRUCTURES” (QuantaMatrix Inc., priority 2020, published 2022).

Tested on: P. aeruginosa ATCC 27853
Assay: antibiotic susceptibility test in the cell culture test device (solid thin film, microscopic observation)
Assay type: cell-based
Conditions: device of Example 1
Protocol: Colistin as an antibiotic was loaded into the island structure through the third inlet portion of each of the well units. The antibiotic was loaded in an amount of 10 μl, dried, and fixed in the shape illustrated in (b) of FIG. 5.
Thereafter, 10 μl of a mixture of agarose and a bacterial solution (P. aeruginosa ATCC 27853) as a first fluid was dispensed into the first accommodation space through the first inlet portion. After the introduction of the first fluid into the first accommodation space was completed, 100 μl of a culture medium as a second fluid was introduced into the second accommodation space through the second inlet portion.
In each of Examples 1-8 and Comparative Examples 1-4, 10 cell culture test devices having the same structure were manufactured. A determination was made as to whether the solid thin films of the first fluid were defective. The susceptibilities to the antibiotic at four selected points of each first accommodation space were evaluated. The four points (a, b, c, and d) were at right angles to the first inlet portion. […] The solid thin film in the first accommodation space was visually observed to determine whether the solid thin film was defective.
Particularly, the effect of the antibiotic was pronounced at ≥1 mg/ml.

## Colistin
After 6 h, 0 to 2 mg/ml colistin (FIG. 10)
  response of bacteria in solid thin film to colistin: Clear responses were observed
Observation after 6 h, concentrations tested 0, 0.12, 0.25, 0.5, 1, 2 mg/ml (FIG. 10)
  colistin concentration at which the effect of the antibiotic was pronounced: ≥ 1 mg/mL
